2 molecules from patent publication US7754875B1, “Halide-free glucosamine base-organic acid salt compositions” (JFC Technologies, LLC, priority 2004, dated 2010) can be followed below.

The nature of data set [1]: Stability of sample in open dish exposed to the air at ambient temperature (color change). It is filed as physicochemical. How it is done:
(§1) 17.9 g of halide-free glucosamine base was mixed with 150 cc of purified water in a reaction vessel. After a clear solution was obtained, 16 g of α-hydroxy octanoic acid were slowly added, with stirring, to the glucosamine base solution. It was noted that the reaction was slightly exothermic since the temperature rose to 35° C. The reaction mixture was filtered and the water was removed by freeze-drying at a pressure of about 200 milliTorre and a temperature of about −45° C. 33 g of an off-white crystalline powder were obtained. The product was placed in a capped bottle that was placed in the refrigerator. […] A sample of the product was placed in an open dish exposed to the air at ambient temperature.
Example 1 was repeated using 300 cc of purified water to which 16.5 g of polyethylene glycol homopolymer had been added. 49 g (97.2% yield) of the white salt product were obtained. A sample of this product was placed in an open dish exposed to the air at ambient temperature.
A sample of the Example 3 product was placed in a dish exposed to the air at ambient temperature. […] A sample of the Example 4 product was placed in a dish exposed to the air at ambient temperature.

Data set [2] can be described thus: Stability of product kept in capped bottle in the refrigerator (color). The data set is classed as physicochemical. Conditions: six months. On the procedure:
as §1

For the molecule `CCCCCCC(O)C(=O)O.NC1C(O)OC(CO)C(O)C1O` (stereo not drawn) [Example 1], the “color of sample after exposure to the air at ambient temperature” value in data set [1] (open dish, 3 days) is “developed a yellow color”. Besides, in data set [2], the “color of product kept in the refrigerator” value is “remained off-white in color”. `N[C@H]1C(O)O[C@H](CO)[C@@H](O)[C@@H]1O.O=C(O)CC(O)(CC(=O)O)C(=O)O` [Example 3]: the “color of sample after exposure to the air at ambient temperature” value in data set [1] (dish, 1 day) was “developed a yellow-orange color”.
